Experiments:
[1] = Coulometric EC-MS (voltammetric mass spectrometry), Phase I type EC oxidation; format: physicochemical; conditions: per product ion
Excerpt: Referring to FIG. 1A, a Model 1100 LC/MSD single quadrupole mass spectrometer 10 (Agilent Technologies, Palo Alto, Calif., USA) was used in combination with a Coulochem® III ECD 12 and Model 5021 coulometric cell 14 (ESA Inc., Chelmsford, Mass., USA).
Compounds are characterized via automated sequences, in which EC potential is changed from, e.g., 0-1200 mV(vs. Pd) in increments of, e.g., 200 mV. EC current and MS ion abundance at specific mass-to-charge ratios (m/z) is monitored. In accordance with the present invention, EC (e.g., coulometric, or amperometric) and reaction product profiles for various drug candidates can be obtained reproducibly. Peak area for parent compounds is inversely proportional to EC response with concomitant formation of reaction products.

[2] = EC-MS oxidation with co-injected glutathione (Phase II type conjugation of EC-generated electrophiles)
Procedure: Compounds (200 ng each), diluted in mobile phase (50% aqueous methanol with added electrolyte), were introduced into the system by FIA with a solvent flow rate of 0.1 ml /minute. Compounds undergoing rapid electrolysis and products were monitored by MS. Each compound was analyzed at several oxidative potentials (e.g., −100, 300, 700, 1100 mV vs. Pd reference). Substrate-product pairs were used to aid in the study of Phase I type product formation as a function of potential (i.e. voltammetric mass spectrometry, VMS).
For Phase I type EC transformation studies, changes in EC current, and the corresponding consumption (oxidation) of substrate and associated product formation were monitored as a function of electrode potential. In these studies a solvent flow rate of 0.1 ml/min. was used with ESI and a single analysis was complete in less than 2.5 min. To study both Phase I oxidative reactions and potential-dependent covalent binding (Phase II) total time for characterization of each compound required approximately 15 min. (6 analyses/compound).
To further examine these products, nucleophilic compounds were added to each solution and co-injected with test compounds to investigate the capability of EC-MS to model metabolic activation and resultant reactions with nucleophiles.

| Structure (SMILES) | E½ (½ wave potential for product formation) [1] [mV vs. Pd] | glutathionyl addition products formed on EC oxidation [2] |
| --- | --- | --- |
| CSCC[C@H](N)C(=O)O [Methionine] | 1100 | – |
| Cc1cc(C(C)(C)C)c(O)c(C(C)(C)C)c1 [BHT] | – | mono-glutathionyl addition product |
| CN(C)CCCN1c2ccccc2CCc2ccccc21 [Imipramine] | 650 | – |
| CC(C)NCC(O)COc1cccc2ccccc12 (stereo not shown) [Propranolol] | 1000 | – |
| COc1cc2c(cc1O)CC[C@@H]1[C@@H]2CC[C@]2(C)[C@@H](O)CC[C@@H]12 [2-Methoxyestradiol] | 450 | – |
| C[C@]12CC[C@@H]3c4ccc(O)c(O)c4CC[C@H]3[C@@H]1CC[C@@H]2O [4-Hydroxyestradiol] | 250 | – |
| N[C@@H](CCS)C(=O)O [Homocysteine] | 1100 | – |
| COc1c(O)ccc2c1CC[C@@H]1[C@@H]2CC[C@]2(C)[C@@H](O)CC[C@@H]12 [4-Methoxyestradiol] | 450 | – |
| C[C@]12CC[C@@H]3c4cc(O)c(O)cc4CC[C@H]3[C@@H]1CC[C@@H]2O [2-Hydroxyestradiol] | 250 | – |
| CCCCN1C[C@H](O)[C@@H](O)[C@H](O)[C@H]1CO [N-butyldeoxynojirimycin] | 1000 | – |

From patent publication US20050148838A1, “Pharmaceutical discovery and development” (priority 2002, published 2005)
